Measurements: ChEMBL document CHEMBL2417512, “Spirolactam-based acetyl-CoA carboxylase inhibitors: toward improved metabolic stability of a chromanone lead structure” (J Med Chem, 2013)
Converted amounts (≈) assume the structure as drawn.

What was measured:
[1] = Hepatic clearance in human liver microsomes; type: ADME, Microsome; details: read-out: CLH
[2] = Lipophilicity, log D of the compound; type: physicochemical; details: octanol/water
[3] = AUC (last) in rat at 5 mg/kg, po; type: ADME, organism-based; design: time 0 - last, dose 5 mg/kg, route oral; details: plasma
[4] = Systemic clearance in rat at 1 mg/kg, iv; type: ADME, organism-based; design: dose 1 mg/kg, route intravenous; details: in vivo
[5] = Oral bioavailability in rat at 5 mg/kg; type: ADME, organism-based; details: in vivo
[6] = Thermodynamic solubility of the compound at pH 1.2; type: physicochemical; details: buffer, read-out: Therm_solubility
[7] = Volume of distribution in rat at 1 mg/kg, iv; type: ADME, organism-based; design: dose 1 mg/kg, route intravenous; details: in vivo
[8] = Cmax in rat at 5 mg/kg, po; type: ADME, organism-based; design: dose 5 mg/kg, route oral; details: in vivo
[9] = Solubility of the compound at pH 6.5; type: physicochemical; details: buffer

Row | microsomal CLint [1] | logD [2] | Compound | other results
1 | < 8 µL/min/mg | 1 | CC(C)(C)n1cc2c(n1)C(=O)NC1(CCN(C(=O)c3ccc4[nH]ncc4c3)CC1)C2 | 
2 | < 8 µL/min/mg | 2.2 | COc1ccc2ccc(C(=O)N3CCC4(CC3)Cc3cn(C(C)(C)C)nc3C(=O)N4)cc2n1 | AUC(0-t) [3]: 2070 ng·h/mL; clearance [4]: 29 mL/min/kg; bioavailability [5]: 71%; solubility thermodynamic [6]: 0.49 µg/mL (≈ 1.09 µM); Vd [7]: 1.7 L/kg; Cmax [8]: 403 ng/mL; solubility [9]: 0.05 µg/mL (≈ 0.112 µM)
3 | 12 µL/min/mg | 2 | COc1nccc2ccc(C(=O)N3CCC4(CC3)Cc3cn(C(C)(C)C)nc3C(=O)N4)cc12 | AUC(0-t) [3]: 713 ng·h/mL; clearance [4]: 41 mL/min/kg; bioavailability [5]: 28%; Cmax [8]: 186 ng/mL; solubility [9]: 0.13 µg/mL (≈ 0.29 µM)
4 | 19 µL/min/mg | 1.9 | CN(C)c1ccc2ccc(C(=O)N3CCC4(CC3)Cc3cn(C(C)(C)C)nc3C(=O)N4)cc2n1 | 
5 | < 8 µL/min/mg | 1.7 | Cc1n[nH]c2c(C)cc(C(=O)N3CCC4(CC3)Cc3cnn(C(C)C)c3C(=O)N4)cc12 | 
6 | < 8 µL/min/mg | 1.6 | COc1cc2cc(C(=O)N3CCC4(CC3)Cc3cn(C(C)(C)C)nc3C(=O)N4)ccc2cn1 | 
7 | 9 µL/min/mg | 1.5 | CNc1ccc2ccc(C(=O)N3CCC4(CC3)Cc3cn(C(C)(C)C)nc3C(=O)N4)cc2n1 | solubility thermodynamic [6]: 4.8 µg/mL (≈ 10.7 µM)
8 | 35 µL/min/mg | 1.7 | CCC(C)(C)n1cc2c(n1)C(=O)NC1(CCN(C(=O)c3cc(C)c4[nH]nc(C)c4c3)CC1)C2 | 
9 | 31 µL/min/mg | 3.5 | CC(C)(C)n1cc2c(n1)C(=O)NC1(CCN(C(=O)c3ccc4c(Cl)c[nH]c4c3)CC1)C2 | 
10 | 17 µL/min/mg | 2.6 | Cc1n[nH]c2c(C)cc(C(=O)N3CCC4(CC3)Cc3cnn(C(C)(C)C)c3C(=O)N4)cc12 | 
11 | < 8 µL/min/mg | 1.5 | Cc1n[nH]c2c(C)cc(C(=O)N3CCC4(CC3)Cc3cn(C(C)(C)C)nc3C(=O)N4)cc12 | 
12 | 19 µL/min/mg | 2.5 | Cc1ccc2c(c1)C(=O)CC1(CCN(C(=O)c3ccc4[nH]ncc4c3)CC1)O2 | 
13 | < 8 µL/min/mg | 1.4 | CC(C)(C)n1cc2c(n1)C(=O)NC1(CCN(C(=O)c3cnc4c(Cl)c[nH]c4c3)CC1)C2 | 
14 | < 8 µL/min/mg | 1.8 | CC(C)(C)n1cc2c(n1)C(=O)NC1(CCN(C(=O)c3ccc4[nH]nc(Cl)c4c3)CC1)C2 | 
15 | 17 µL/min/mg | 2.6 | CC(C)(C)n1cc2c(n1)C(=O)NC1(CCN(C(=O)c3ccc4[nH]cc(Cl)c4c3)CC1)C2 | 
16 | < 8 µL/min/mg | 2.5 | CC(C)(C)n1cc2c(n1)C(=O)NC1(CCN(C(=O)c3ccc4[nH]nc(C(F)(F)F)c4c3)CC1)C2 | 
17 | < 8 µL/min/mg | 1.1 | Cc1n[nH]c2c(C)cc(C(=O)N3CCC4(CC3)Cc3cn(C(C)C)nc3C(=O)N4)cc12 | 
18 | 14 µL/min/mg | 1.4 | Cc1n[nH]c2c(C)cc(C(=O)N3CCC4(CC3)Cc3cn(C(C)(C)C)nc3C(=O)N4C)cc12 | 
19 | 29 µL/min/mg | 2.1 | CCCNc1ccc2ccc(C(=O)N3CCC4(CC3)Cc3cn(C(C)(C)C)nc3C(=O)N4)cc2n1 | 
20 | < 9 µL/min/mg | 1.4 | CC(C)(C)n1cc2c(n1)C(=O)CC1(CCN(C(=O)c3ccc4[nH]ncc4c3)CC1)O2 | 
21 | 25 µL/min/mg | 1.5 | CNc1nccc2ccc(C(=O)N3CCC4(CC3)Cc3cn(C(C)(C)C)nc3C(=O)N4)cc12 | 
